Results: ChEMBL document CHEMBL1135140, “Pyridazines. Part 28: 5-alkylidene-6-phenyl-3(2H)-pyridazinones, a new family of platelet aggregation inhibitors” (Bioorg Med Chem Lett, 2002)

Assay: Tested for anti-platelet activity by turbidimetric method using thrombin as agonist in washed platelet
Type: functional

IC50 | Structure (SMILES)
1550 µM | Clc1ccccc1CN1CCc2sccc2C1 [TICLOPIDINE]
696 µM | O=C1C(CC[S+]([O-])c2ccccc2)C(=O)N(c2ccccc2)N1c1ccccc1 (stereo not given) [SULFINPYRAZONE]
25 µM | COC(=O)/C(=C/c1cc(O)nnc1-c1ccccc1)C(C)=O
20 µM | CCOC(=O)C(=Cc1cc(=O)[nH]nc1-c1ccccc1)C(=O)OCC
45 µM | COC(=O)C(=Cc1cc(=O)[nH]nc1-c1ccccc1)C(=O)OC
